{
  "source": "paper PMC11279551",
  "about": "“Pharmacokinetics and Enterohepatic Circulation of 2-(Quinoline-8-carboxamido)benzoic Acid (2-QBA) in Mice” (Pharmaceutics, 2024)",
  "key": {"[1]": {"experiment": "Pharmacokinetics after IV administration in mice", "assay_type": "in vivo", "conditions": "plasma; for AUC(0-inf) / MRT / clearance / half-life / AUC(0-t) / Vd: male, ICR, mouse; for AUC(0-t): read-out: AUC24h; for Vd: read-out: Vdss", "procedure": "Male ICR mice (7 weeks old, […]; Samtako, Osan, Korea) were acclimated to the animal facility at Kyungpook National University for one week with free access to animal chow and water. In the per oral administration (PO) groups, the mice were fasted for 14–16 h prior to the administration of 2-QBA.\nFor intravenous (IV) administration, 2-QBA (0.5 mg/kg in 3 mL of saline containing 10% DMSO) was injected via the tail vein for eight mice that were randomly divided into two groups for sparse sampling. Blood samples were collected via the jugular vein at 0.083, 0.5, 2, and 8 h from 4 mice and at 0.25, 1, 4, and 24 h from another 4 mice. Eight mice were administered 1 mg/kg of 2-QBA using the same protocol described above.\nAfter the PO administration of 2-QBA (2 mg/kg in 5 mL of saline containing 10% DMSO) using an oral gavage for 10 mice, blood samples were collected at 0.25, 0.75, 2, and 8 h from 5 mice and at 0.5, 1, 4, and 24 h from another 5 mice. Ten mice in each group were administered 5 mg/kg or 15 mg/kg of 2-QBA using an oral gavage and blood was drawn using the same protocol described above. All blood samples were centrifuged at 13,000× g for 1 min and the supernatant plasma (30 μL) was stored at −80 °C until the analysis of the 2-QBA. For the analysis of 2-QBA in the plasma samples, 120 μL of IS solution (berberine 1 ng/mL in acetonitrile) was added to plasma samples (30 μL). The mixture was vigorously vortexed for 5 min and then centrifuged at 13,000× g for 5 min. The supernatant was transferred to autosampler vials. Subsequently, a 3 μL aliquot was injected into the LC-MS/MS system.\n(§1) WinNonlin 5.1 software (Pharsight Co., Mountain View, CA, USA) was used to calculate the pharmacokinetic parameters. AUClast and AUCinf indicate the areas under the plasma concentration curve from 0 h to the last sample and from 0 h to infinity, respectively; these were estimated using the linear trapezoidal method. T1/2 is the elimination half-life, which is estimated from the elimination coefficient (k) (i.e., 0.693/k), and MRT is the mean residence time. CL is the total clearance, which is calculated by dividing the dose by AUCinf. Vdss is the volume of the distribution at a steady state, calculated from MRTxCL. CLrenal and CLfeces are calculated by dividing the amount excreted in urine and feces by the AUCinf, respectively. CLmetabolism is calculated by subtracting CLrenal and CLfeces from CL. Cmax and Tmax are the maximum plasma concentration and time to reach Cmax, respectively. BA is calculated by dividing the dose-normalized AUCinf for PO administration (AUCinf/PO dose) by the dose-normalized AUCinf for IV administration (AUCinf/IV dose). All data are expressed as the mean ± standard deviation (SD)."}, "[2]": {"experiment": "Effect of activated charcoal (AC) on the pharmacokinetics of 2-QBA", "assay_type": "in vivo", "conditions": "mice; for AUC(0-t): read-out: AUC24h", "procedure": "To elucidate the reabsorption mechanism of 2-QBA, a pharmacokinetic study of 2-QBA was conducted with activated charcoal (AC) administered PO. Male ICR mice (7 weeks old, 25–30 g) were fasted for 14–16 h prior to the administration of 2-QBA.\nIn total, […] were administered 2-QBA (1 mg/kg/3 mL) via the tail vein. Two hours after the 2-QBA dosing, AC (0.8 g/kg/5 mL in distilled water) or a vehicle (5 mL/kg distilled water) was administrated via oral gavage. Each group included ten mice who were randomly divided into two groups for sparse sampling. Blood collection was performed at 0.083, 0.5, 2, and 8 h from 5 mice and at 0.25, 1, 4, and 24 h from another 5 mice, as described previously. Four mice treated with either AC (0.8 g/kg) or the vehicle 2 h after the 2-QBA IV dosing (1 mg/kg) were returned to a metabolic cage to collect the urine and feces samples. The urine and feces samples were collected for 72 h.\nNext, 2-QBA was administered PO (2 mg/kg/5 mL) with or without AC (0.8 g/kg in 3 mL of DW), which was administered via oral gavage 2 h after the 2-QBA dosing. Each group included eight mice who were randomly divided into two groups for sparse sampling. Blood collection was performed at 0.25, 0.75, 2, and 8 h from 4 mice and at 0.5, 1, 4, and 24 h from another 4 mice, as described previously. Four mice treated with either AC (0.8 g/kg) or vehicle 2 h after the 2-QBA PO dosing (2 mg/kg) were returned to a metabolic cage to collect the urine and feces samples. The urine and feces samples were collected for 72 h.\nAliquots of plasma samples (30 μL) were added to 120 μL of IS solution. The mixture was vigorously vortexed for 5 min and then centrifuged at 13,000× g for 5 min. The supernatant was transferred to autosampler vials. Subsequently, a 3 μL aliquot was injected into the LC-MS/MS system. Aliquots (30 μL) of urine and 10% feces homogenate samples were added to 60 μL of 150 mM sodium acetate buffer (pH 5.0) in the presence or absence of β-glucuronidase (900 unit) at 37 °C for 2 h. The reaction was quenched by adding four volumes of ice-cold IS solution. The mixture was vigorously vortexed for 5 min, followed by centrifugation at 13,000× g for 5 min. The supernatant was transferred to autosampler vials and subsequently a 3 μL aliquot was injected into the LC-MS/MS system.\nas §1"}, "[3]": {"conditions": "male, ICR, mouse, plasma, iv, 1 mg/kg, IV 1 mg/kg, AC (0.8 g/kg)"}, "[4]": {"conditions": "male, ICR, mouse, plasma, iv, 1 mg/kg, IV 1 mg/kg, Control"}, "[5]": {"conditions": "male, ICR, mouse, plasma, po, 2 mg/kg, PO 2 mg/kg, AC (0.8 g/kg)"}, "[6]": {"conditions": "male, ICR, mouse, plasma, po, 2 mg/kg, PO 2 mg/kg, Control"}},
  "note": "Like-named read-outs stand apart in the source and are kept apart here.",
  "data": [
    {"smiles": "O=C(O)c1ccccc1NC(=O)c1cccc2cccnc12", "note": "[2-QBA, 2-(quinoline-8-carboxamido)benzoic acid]", "values": [
      {"measurement": "AUC24h/dose", "setting": "[1]; IV 0.5 mg/kg", "value": "824.7 ± 64.1", "unit": "ng·h/mL/mg/kg"},
      {"measurement": "AUCinf/dose", "setting": "[1]; IV 0.5 mg/kg", "value": "835.6 ± 64.6", "unit": "ng·h/mL/mg/kg"},
      {"measurement": "AUC24h/dose", "setting": "[1]; IV 1.0 mg/kg", "value": "996.7 ± 146.6", "unit": "ng·h/mL/mg/kg"},
      {"measurement": "AUCinf/dose", "setting": "[1]; IV 1.0 mg/kg", "value": "1044 ± 174.9", "unit": "ng·h/mL/mg/kg"},
      {"measurement": "AUC(0-inf)", "setting": "[1]; IV 0.5 mg/kg", "value": "418 ± 32.3", "unit": "ng·h/mL"},
      {"measurement": "MRT", "setting": "[1]; IV 0.5 mg/kg", "value": "3.88 ± 1.58", "unit": "h"},
      {"measurement": "clearance", "setting": "[1]; IV 0.5 mg/kg", "value": "20 ± 1.53", "unit": "mL/min/kg"},
      {"measurement": "half-life", "setting": "[1]; IV 0.5 mg/kg", "value": "4.61 ± 2.19", "unit": "h"},
      {"measurement": "AUC(0-t)", "setting": "[1]; IV 0.5 mg/kg", "value": "412 ± 32.1", "unit": "ng·h/mL"},
      {"measurement": "Vd", "setting": "[1]; IV 0.5 mg/kg", "value": "4.73 ± 2.15", "unit": "L/kg"},
      {"measurement": "AUC(0-inf)", "setting": "[1]; IV 1.0 mg/kg", "value": "1040 ± 175", "unit": "ng·h/mL"},
      {"measurement": "MRT", "setting": "[1]; IV 1.0 mg/kg", "value": "3.03 ± 1.11", "unit": "h"},
      {"measurement": "clearance", "setting": "[1]; IV 1.0 mg/kg", "value": "16.3 ± 2.81", "unit": "mL/min/kg"},
      {"measurement": "half-life", "setting": "[1]; IV 1.0 mg/kg", "value": "5.26 ± 1.31", "unit": "h"},
      {"measurement": "AUC(0-t)", "setting": "[1]; IV 1.0 mg/kg", "value": "997 ± 147", "unit": "ng·h/mL"},
      {"measurement": "Vd", "setting": "[1]; IV 1.0 mg/kg", "value": "2.88 ± 0.72", "unit": "L/kg"},
      {"measurement": "AUC(0-t)", "setting": "[2]; male, ICR, mouse, plasma, intravenous, 1 mg/kg, IV 1 mg/kg, AC (0.8 g/kg) PO 2 h after dosing", "value": "1180 ± 264", "unit": "ng·h/mL"},
      {"measurement": "AUC(0-inf)", "setting": "[2]; [3]", "value": "1210 ± 293", "unit": "ng·h/mL"},
      {"measurement": "MRT", "setting": "[2]; [3]", "value": "2.48 ± 2.56", "unit": "h"},
      {"measurement": "clearance", "setting": "[2]; [3]", "value": "14.5 ± 3.95", "unit": "mL/min/kg"},
      {"measurement": "half-life", "setting": "[2]; [3]", "value": "3.18 ± 2.52", "unit": "h"},
      {"measurement": "AUC(0-inf)", "setting": "[2]; [4]", "value": "1330 ± 422", "unit": "ng·h/mL"},
      {"measurement": "MRT", "setting": "[2]; [4]", "value": "2.88 ± 1.14", "unit": "h"},
      {"measurement": "clearance", "setting": "[2]; [4]", "value": "13.9 ± 5.41", "unit": "mL/min/kg"},
      {"measurement": "half-life", "setting": "[2]; [4]", "value": "3.88 ± 1.72", "unit": "h"},
      {"measurement": "AUC(0-t)", "setting": "[2]; male, ICR, mouse, plasma, iv, 1 mg/kg, IV 1 mg/kg, Control (vehicle 2 h after dosing)", "value": "1270 ± 361", "unit": "ng·h/mL"},
      {"measurement": "AUC(0-inf)", "setting": "[2]; [5]", "value": "836 ± 209", "unit": "ng·h/mL"},
      {"measurement": "MRT", "setting": "[2]; [5]", "value": "7 ± 2.48", "unit": "h"},
      {"measurement": "half-life", "setting": "[2]; [5]", "value": "5.5 ± 2.24", "unit": "h"},
      {"measurement": "Cmax", "setting": "[2]; male, ICR, mouse, plasma, po, 2 mg/kg, PO 2 mg/kg, AC (0.8 g/kg) 2 h after dosing", "value": "315 ± 106", "unit": "ng/mL"},
      {"measurement": "AUC(0-t)", "setting": "[2]; [5]", "value": "650 ± 305", "unit": "ng·h/mL"},
      {"measurement": "AUC(0-inf)", "setting": "[2]; [6]", "value": "2110 ± 608", "unit": "ng·h/mL"},
      {"measurement": "Cmax", "setting": "[2]; [6]", "value": "399 ± 90.7", "unit": "ng/mL"},
      {"measurement": "MRT", "setting": "[2]; [6]", "value": "8.49 ± 3.08", "unit": "h"},
      {"measurement": "half-life", "setting": "[2]; [6]", "value": "6.05 ± 2.04", "unit": "h"},
      {"measurement": "AUC(0-t)", "setting": "[2]; [6]", "value": "1930 ± 453", "unit": "ng·h/mL"},
      {"measurement": "Tmax", "setting": "[2]; male, ICR, mouse, plasma, PO 2 mg/kg, Control", "value": 0.25, "unit": "h"},
      {"measurement": "BA", "setting": "[2]; PO 2 mg/kg, AC (0.8 g/kg)", "value": 34.5, "unit": "%"},
      {"measurement": "BA", "setting": "[2]; PO 2 mg/kg, Control", "value": 79.8, "unit": "%"}
    ]}
  ]
}
